Patent publication US20100222269A1, “IMPROVED DERIVATIVES OF AMYLIN” (priority 2007, published 2010)
Read-outs that look alike come from different tables or passages of the source. Positions of bridges follow the written chain, without caps; N, C: chain ends. Residues, ends and D or L forms follow the SMILES beside them. Groups on a side chain read outwards from the residue. *: point of attachment. C20 diacid = O=C(O)CCCCCCCCCCCCCCCCCCC(=O)*; C18 diacid = O=C(O)CCCCCCCCCCCCCCCCC(=O)*; AEEA = NCCOCCOCC(=O)O

Molecular target: T1, Amylin 3(a) receptor (human calcitonin receptor (CTa) with RAMP-3) (Homo sapiens, UniProt O60896+P30988)
T1 construct: expressed in transfected cells; host or cells: BHK570 (baby hamster kidney) cells, stably transfected, with CRE-luciferase reporter
T1 sequence (O60896 24-148): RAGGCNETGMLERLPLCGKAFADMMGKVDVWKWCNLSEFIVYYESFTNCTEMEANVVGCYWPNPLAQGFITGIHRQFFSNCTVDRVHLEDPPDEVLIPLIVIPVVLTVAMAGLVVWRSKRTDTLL
T1 sequence (P30988 25-474): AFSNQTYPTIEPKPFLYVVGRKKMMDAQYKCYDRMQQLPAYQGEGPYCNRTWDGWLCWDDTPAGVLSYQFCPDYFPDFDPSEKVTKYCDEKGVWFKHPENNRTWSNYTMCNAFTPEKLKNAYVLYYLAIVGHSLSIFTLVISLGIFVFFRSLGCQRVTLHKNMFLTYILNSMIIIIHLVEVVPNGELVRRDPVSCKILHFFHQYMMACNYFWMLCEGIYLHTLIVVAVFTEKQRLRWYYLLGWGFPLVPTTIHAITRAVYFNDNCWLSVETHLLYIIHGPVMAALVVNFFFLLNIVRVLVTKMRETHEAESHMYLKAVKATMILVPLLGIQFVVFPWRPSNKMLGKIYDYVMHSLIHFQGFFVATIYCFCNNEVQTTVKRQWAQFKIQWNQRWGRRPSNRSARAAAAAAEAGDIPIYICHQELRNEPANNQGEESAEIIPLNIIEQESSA
Assay: Amylin luciferase assay (CRE-luciferase reporter in BHK Amylin 3(a)//CRE-luc cells)
Assay type: cell-based
Source text: It has previously been published (Poyner D R et al 2002, Pharmacological Reviews 54(2) 233-246) that activation of Amylin receptors (coexpression of Calcitonin receptor and receptor activity modifying peptides RAMPs) by Amylin leads to an increase in the intracellular concentration of cAMP. Consequently, transcription is activated at promotors containing multiple copies of the cAMP response element (CRE). It is thus possible to measure Amylin activity by use of a CRE luciferase reporter gene introduced into BHK cells also expressing an Amylin receptor.
2. Construction of an Amylin 3(a)/CRE-luc Cell Line
A BHK570 cell line stably transfected with the human calcitonin receptor (CTa) and a CRE-responsive luciferase reportergene. The cell line was further transfected with RAMP-3, using standard methods. This turns the Calcitonin receptor into an Amylin 3(a) receptor. Methotrexate, Neomycin, and Hygromycin are selection markers for luciferase, the Calcitonin receptor, and RAMP-3, respectively.
3. Amylin Luciferase Assay
To perform activity assays, BHK Amylin 3(a)//CRE-luc cells were seeded in white 96 well culture plates at a density of about 20.000 cells/well. The cells were in 100 μl growth medium (DMEM with 10% FBS, 1% Pen/Strep, 1 mM Na-pyruvate, 250 nM Methotrexate, 500 μg/ml Neomycin, and 400 μg/ml Hygromycin). After incubation overnight at 37° C. and 5% CO2, the growth medium was replaced by 50 μl/well assay medium (DMEM (without phenol red), Glumamax™, 10% FBS, and 10 mM Hepes, pH 7,4). Further, 50 μl/well of standard or sample in assay buffer were added. After 4 hours incubation at 37° C. and 5% CO2, the assay medium with standard or sample were removed and replaced by 100 μl/well PBS. Further, 100 μl/well LucLite™ was added. The plates were sealed and incubated at room temperature for 30 minutes. Finally, luminescence was measured on a TopCounter (Packard) in SPC (single photon counting) mode.

[1] = BHK570 cells with human calcitonin receptor (CTa), RAMP-3 and CRE-luciferase reporter, 4 hours incubation, read-out: Potency luciferase assay

| SMILES | EC50 [1] | EC50 |
| --- | --- | --- |
| CC[C@H](C)[C@H](NC(=O)[C@@H]1CCCN1C(=O)CNC(=O)[C@H](Cc1ccccc1)NC(=O)[C@H](CC(N)=O)NC(=O)[C@H](CC(N)=O)NC(=O)[C@H](CO)NC(=O)[C@H](CO)NC(=O)[C@H](Cc1c[nH]cn1)NC(=O)[C@@H](NC(=O)[C@H](CC(C)C)NC(=O)[C@H](Cc1ccccc1)NC(=O)[C@H](CC(N)=O)NC(=O)[C@H](C)NC(=O)[C@H](CC(C)C)NC(=O)[C@H](CCCNC(=N)N)NC(=O)[C@H](CCC(N)=O)NC(=O)[C@@H](NC(=O)[C@H](C)NC(=O)[C@@H]1CSSC[C@H](NC(=O)[C@@H](N)CCCCN)C(=O)N[C@@H](CCCCNC(=O)CCCCCCCCCCCCCCCCC(=O)O)C(=O)N[C@@H]([C@@H](C)O)C(=O)N[C@@H](C)C(=O)N[C@@H]([C@@H](C)O)C(=O)N1)[C@@H](C)O)C(C)C)C(=O)N[C@@H](CC(C)C)C(=O)N1CCC[C@H]1C(=O)N1CCC[C@H]1C(=O)N[C@H](C(=O)N[C@@H](CC(N)=O)C(=O)N[C@H](C(=O)NCC(=O)N[C@@H](CO)C(=O)N[C@@H](CC(N)=O)C(=O)N[C@H](C(=O)N[C@@H](Cc1ccc(O)cc1)C(N)=O)[C@@H](C)O)C(C)C)[C@@H](C)O [Example 2, N-epsilon3-(17-carboxyheptadecanoyl)-[Lys3]-pramlintide (1-37)] (H-KCK(C18 diacid)TATCATQRLANFLVHSSNNFGPILPPTNVGSNTY-NH2; disulfide 2-7; N-terminus and C-terminus assumed) | 50 pM |  |
| CC[C@H](C)[C@H](NC(=O)[C@@H]1CCCN1C(=O)CNC(=O)[C@H](Cc1ccccc1)NC(=O)[C@H](CC(N)=O)NC(=O)[C@H](CC(N)=O)NC(=O)[C@H](CO)NC(=O)[C@H](CO)NC(=O)[C@H](Cc1c[nH]cn1)NC(=O)[C@@H](NC(=O)[C@H](CC(C)C)NC(=O)[C@H](Cc1ccccc1)NC(=O)[C@H](CC(N)=O)NC(=O)[C@H](C)NC(=O)[C@H](CC(C)C)NC(=O)[C@H](CCCNC(=N)N)NC(=O)[C@H](CCC(N)=O)NC(=O)[C@@H](NC(=O)[C@H](C)NC(=O)[C@@H]1CSSC[C@H](NC(=O)[C@@H](N)CCCCN)C(=O)N[C@@H](CCCCNC(=O)COCCOCCNC(=O)COCCOCCNC(=O)CCCCCCCCCCCCCCCCC(=O)O)C(=O)N[C@@H]([C@@H](C)O)C(=O)N[C@@H](C)C(=O)N[C@@H]([C@@H](C)O)C(=O)N1)[C@@H](C)O)C(C)C)C(=O)N[C@@H](CC(C)C)C(=O)N1CCC[C@H]1C(=O)N1CCC[C@H]1C(=O)N[C@H](C(=O)N[C@@H](CC(N)=O)C(=O)N[C@H](C(=O)NCC(=O)N[C@@H](CO)C(=O)N[C@@H](CC(N)=O)C(=O)N[C@H](C(=O)N[C@@H](Cc1ccc(O)cc1)C(N)=O)[C@@H](C)O)C(C)C)[C@@H](C)O [Example 3, N-epsilon3-(2-{2-[2-(2-{2-[2-(17-carboxyheptadecanoylamino)ethoxy]ethoxy}acetylamino)ethoxy]ethoxy}acetyl)-[Lys3]-pramlintide (1-37)] (H-KCK([AEEA-AEEA-C18 diacid])TATCATQRLANFLVHSSNNFGPILPPTNVGSNTY-NH2; disulfide 2-7) | 100 pM |  |
| CC[C@H](C)[C@H](NC(=O)[C@@H]1CCCN1C(=O)CNC(=O)[C@H](Cc1ccccc1)NC(=O)[C@H](CC(N)=O)NC(=O)[C@H](CC(N)=O)NC(=O)[C@H](CO)NC(=O)[C@H](CO)NC(=O)[C@H](Cc1c[nH]cn1)NC(=O)[C@@H](NC(=O)[C@H](CC(C)C)NC(=O)[C@H](Cc1ccccc1)NC(=O)[C@H](CC(N)=O)NC(=O)[C@H](C)NC(=O)[C@H](CC(C)C)NC(=O)[C@H](CCCNC(=N)N)NC(=O)[C@H](CCC(N)=O)NC(=O)[C@@H](NC(=O)[C@H](C)NC(=O)[C@@H]1CSSC[C@H](NC(=O)[C@@H](N)CCCCN)C(=O)N[C@@H](CC(N)=O)C(=O)N[C@@H]([C@@H](C)O)C(=O)N[C@@H](C)C(=O)N[C@@H]([C@@H](C)O)C(=O)N1)[C@@H](C)O)C(C)C)C(=O)N[C@@H](CC(C)C)C(=O)N1CCC[C@H]1C(=O)N[C@@H](CCCCNC(=O)COCCOCCNC(=O)COCCOCCNC(=O)CCCCCCCCCCCCCCCCCCC(=O)O)C(=O)N[C@H](C(=O)N[C@@H](CC(N)=O)C(=O)N[C@H](C(=O)NCC(=O)N[C@@H](CO)C(=O)N[C@@H](CC(N)=O)C(=O)N[C@H](C(=O)N[C@@H](Cc1ccc(O)cc1)C(N)=O)[C@@H](C)O)C(C)C)[C@@H](C)O [Example 6, N-epsilon29-(2-{2-[2-(2-{2-[2-(19-carboxynonadecanoylamino)ethoxy]ethoxy}acetylamino)ethoxy]ethoxy}acetyl)-[Lys29]-pramlintide (1-37)] (H-KCNTATCATQRLANFLVHSSNNFGPILPK([AEEA-AEEA-C20 diacid])TNVGSNTY-NH2; disulfide 2-7; N-terminus and C-terminus assumed) | 200 pM |  |
| CC[C@H](C)[C@H](NC(=O)[C@@H]1CCCN1C(=O)CNC(=O)[C@H](Cc1ccccc1)NC(=O)[C@H](CC(N)=O)NC(=O)[C@H](CCCCNC(=O)COCCOCCNC(=O)COCCOCCNC(=O)CCCCCCCCCCCCCCCCCCC(=O)O)NC(=O)[C@H](CO)NC(=O)[C@H](CO)NC(=O)[C@H](Cc1c[nH]cn1)NC(=O)[C@@H](NC(=O)[C@H](CC(C)C)NC(=O)[C@H](Cc1ccccc1)NC(=O)[C@H](CC(N)=O)NC(=O)[C@H](C)NC(=O)[C@H](CC(C)C)NC(=O)[C@H](CCCNC(=N)N)NC(=O)[C@H](CCC(N)=O)NC(=O)[C@@H](NC(=O)[C@H](C)NC(=O)[C@@H]1CSSC[C@H](NC(=O)[C@@H](N)CCCCN)C(=O)N[C@@H](CC(N)=O)C(=O)N[C@@H]([C@@H](C)O)C(=O)N[C@@H](C)C(=O)N[C@@H]([C@@H](C)O)C(=O)N1)[C@@H](C)O)C(C)C)C(=O)N[C@@H](CC(C)C)C(=O)N1CCC[C@H]1C(=O)N1CCC[C@H]1C(=O)N[C@H](C(=O)N[C@@H](CC(N)=O)C(=O)N[C@H](C(=O)NCC(=O)N[C@@H](CO)C(=O)N[C@@H](CC(N)=O)C(=O)N[C@H](C(=O)N[C@@H](Cc1ccc(O)cc1)C(N)=O)[C@@H](C)O)C(C)C)[C@@H](C)O [Example 7, N-epsilon2′-(2-{2-[2-(2-{2-[2-(19-carboxynonadecanoylamino)ethoxy]ethoxy}acetylamino)ethoxy]ethoxy}acetyl)-[Lys21]-pramlintide (1-37)] (H-KCNTATCATQRLANFLVHSSK([AEEA-AEEA-C20 diacid])NFGPILPPTNVGSNTY-NH2; disulfide 2-7; N-terminus and C-terminus assumed) | 100 pM |  |
| CC[C@H](C)[C@H](NC(=O)[C@@H]1CCCN1C(=O)CNC(=O)[C@H](Cc1ccccc1)NC(=O)[C@H](CC(N)=O)NC(=O)[C@H](CC(N)=O)NC(=O)[C@H](CO)NC(=O)[C@H](CO)NC(=O)[C@H](Cc1c[nH]cn1)NC(=O)[C@H](CCCCNC(=O)COCCOCCNC(=O)COCCOCCNC(=O)CCCCCCCCCCCCCCCCCCC(=O)O)NC(=O)[C@H](CC(C)C)NC(=O)[C@H](Cc1ccccc1)NC(=O)[C@H](CC(N)=O)NC(=O)[C@H](C)NC(=O)[C@H](CC(C)C)NC(=O)[C@H](CCCNC(=N)N)NC(=O)[C@H](CCC(N)=O)NC(=O)[C@@H](NC(=O)[C@H](C)NC(=O)[C@@H]1CSSC[C@H](NC(=O)[C@@H](N)CCCCN)C(=O)N[C@@H](CC(N)=O)C(=O)N[C@@H]([C@@H](C)O)C(=O)N[C@@H](C)C(=O)N[C@@H]([C@@H](C)O)C(=O)N1)[C@@H](C)O)C(=O)N[C@@H](CC(C)C)C(=O)N1CCC[C@H]1C(=O)N1CCC[C@H]1C(=O)N[C@H](C(=O)N[C@@H](CC(N)=O)C(=O)N[C@H](C(=O)NCC(=O)N[C@@H](CO)C(=O)N[C@@H](CC(N)=O)C(=O)N[C@H](C(=O)N[C@@H](Cc1ccc(O)cc1)C(N)=O)[C@@H](C)O)C(C)C)[C@@H](C)O [Example 8, N-epsilon17-(2-{2-[2-(2-{2-[2-(19-carboxynonadecanoylamino)ethoxy]ethoxy}acetylamino)ethoxy]ethoxy}acetyl)-[Lys17]-pramlintide (1-37)] (H-KCNTATCATQRLANFLK([AEEA-AEEA-C20 diacid])HSSNNFGPILPPTNVGSNTY-NH2; disulfide 2-7; N-terminus assumed) |  | 100 pM |
